Positions of bridges follow the written chain, without caps; N, C: chain ends. Non-standard residues stand in square brackets, D forms with d. Residues, ends and D or L forms follow the SMILES beside them. NMeW = CN[C@@H](Cc1c[nH]c2ccccc12)C(=O)O; dPhe(4-Br) = N[C@H](Cc1ccc(Br)cc1)C(=O)O; d1Nal = N[C@H](Cc1cccc2ccccc12)C(=O)O; NMeH = CN[C@@H](Cc1c[nH]cn1)C(=O)O; 3Pal = N[C@@H](Cc1cccnc1)C(=O)O; 4Pal = N[C@@H](Cc1ccncc1)C(=O)O; Cit = NC(=O)NCCC[C@H](N)C(=O)O; Nle = CCCC[C@H](N)C(=O)O; Aib = CC(C)(N)C(=O)O
Experiments:
human MC1R = target: T1, human MC1R (Homo sapiens, UniProt Q01726); test: split-luciferase cAMP sensor assay, agonist mode, hMC1R; format: cell-based; settings: MC4R versus MC1R
T1 construct: expressed in transfected cells; host or cells: HEK-293 cells stably expressing hMC1R and the GScAMP22F cAMP sensor
Procedure: FIG. 4A-B. (A) Pharmacological properties of exemplary MC4R agonist peptides, including those with improved efficacy in the MC4R+/− mouse (CTX-1211, CTX-1227, and CTX-1228). Concentration-response agonist curves for peptides indicated at the human MC4R (red), human MC3R (blue), human MC5R (green), and human MC1R (black) were determined by a split-luciferase cAMP sensor dynamic assay in HEK-293 cells stably expressing the hMC1R, hMC3R, hMC4R, or hMC5R and the GScAMP22F cAMP sensor. Each data point represents the mean±SEM of two experiments with three replicates each per experiment. Data is normalized to the ECmax of α-MSH. (B) Same as above, for peptides representing reduced activity at the hMC1R. Inset tables indicate EC50 values for the ligand indicated for each receptor.
The assay for the determination of the cAMP response in live cells was described previously. (Yu et al., 2020, Science 368, 428-433; incorporated by reference in its entirety). Cells were seeded at a density of 20,000 cells per well using 384-well poly-D lysine-coated, clear bottom, and black-wall assay plates (Corning Inc. Corning, NJ). Cells were allowed to attach to the plates for 18 to 24 h after which growth media was removed and 20 μl of 4% D-luciferin (Promega) in CO2 independent, serum-free medium (Thermo Fisher Scientific) was added to each well. The luciferase substrate was allowed to permeate the cells for 120 min at 37° C. Intracellular cAMP levels were measured using an FDSS 7000EX Functional Drug Screening System (Hamamatsu Photonics, Hamamatsu, Japan) in the Center for Chemical Genomics at the Life Sciences Institute. This instrument allowed the in-line addition of test-peptides and receptor agonists while simultaneously acquiring the luminescence signal from live cells. Assay read steps were set as follows: baseline acquisition of 2 min, the addition of 10 μl of varying 3× concentrations of test-peptides or vehicle followed by 11 min measurement (measurement window 1), and 10 μl addition of 4× concentration of the endogenous melanocortin agonist α-MSH (Bachem, Bubendorf, Switzerland) followed by an additional 11 min response measurement (measurement window 2). The resulting final concentration of α-MSH was close to the respective receptor EC90 dose for each receptor. Intraplate concentration response curves for α-MSH and SHU-9119 (Phoenix Pharmaceuticals, Burlingame CA) were included as reference controls. A submaximal forskolin (20 μM) concentration was also included to serve as a normalization reference to account for cell number variations and differences in assay transducer efficiency between cell lines.
With this set up it was possible to evaluate the direct effect of the test-peptides on the MC3R and MC4R cell lines during measurement window 1, while the antagonist profile in the presence of EC90 α-MSH was determined on measurement window 2. For data analysis baseline luminescence (i.e. the maximum luminescence signal from the initial 0 to 2 min window) was subtracted from the maximum luminescence obtained during measurement window 1 (2 to 13 min) and measurement window 2 (13 to 24 min) to yield the test-peptide elicited responses. EC50 or IC50 potency values were determined by non-linear regression by fitting the data to a sigmoid four-parameter variable slope model using the GraphPad Prism version 8.4 software package (San Diego CA).

human MC4R = target: T2, human MC4R (Homo sapiens, UniProt P32245); test: split-luciferase cAMP sensor assay, agonist mode (measurement window 1), hMC4R; format: cell-based; settings: agonist mode; for Emax / MC4R cAMP % max activation: % maximal activation; for Emax: read-out: MC4R cAMP % max activation; for EC50: HEK-293 cells stably expressing hMC4R, read-out: MC4R cAMP EC50
T2 construct: host or cells: HEK-293 cells stably expressing the GScAMP22F split-luciferase cAMP sensor and hMC4R, G418 selection
Summary of the method: (§1)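 EC50 values come from a four-parameter variable-slope fit of luminescence in measurement window 1, capturing direct peptide effects on receptor-expressing cells with a cAMP22f luciferase sensor. Cells were preloaded with 4% D-luciferin, serum-free medium; 20 μM forskolin normalized for cell number and transducer efficiency.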

human MC3R [1] = target: T3, human MC3R (Homo sapiens, UniProt P41968); test: split-luciferase cAMP sensor assay, agonist mode (measurement window 1), hMC3R; format: cell-based; settings: for Emax / MC3R cAMP % max activation: % maximal activation; for Emax / MC3R cAMP % max activation / EC50: agonist mode; for Emax: read-out: MC3R cAMP % max activation; for MC4R selectivity vs MC3R: MC4R versus MC3R; for EC50: HEK-293 cells stably expressing hMC3R, read-out: MC3R cAMP EC50
T3 construct: expressed in transfected cells; host or cells: HEK-293 cells stably expressing the GScAMP22F split-luciferase cAMP sensor (parent reporter line from Promega); MC3R clone generated in-house, G418 selection
Summary of the method: as §1

human MC4R receptor [2] = target: T4, human MC4R receptor (human, UniProt P32245 1-332); test: cell-based or functional assay
human MC3R [3] = target: human MC3R (human, UniProt P41968 1-323); test: cell-based or functional assay
human MC4R receptor [4] = target: T4, human MC4R receptor; test: cell-based or functional assay; remark: listed apart in the source

T2 sequence (P32245 whole entry): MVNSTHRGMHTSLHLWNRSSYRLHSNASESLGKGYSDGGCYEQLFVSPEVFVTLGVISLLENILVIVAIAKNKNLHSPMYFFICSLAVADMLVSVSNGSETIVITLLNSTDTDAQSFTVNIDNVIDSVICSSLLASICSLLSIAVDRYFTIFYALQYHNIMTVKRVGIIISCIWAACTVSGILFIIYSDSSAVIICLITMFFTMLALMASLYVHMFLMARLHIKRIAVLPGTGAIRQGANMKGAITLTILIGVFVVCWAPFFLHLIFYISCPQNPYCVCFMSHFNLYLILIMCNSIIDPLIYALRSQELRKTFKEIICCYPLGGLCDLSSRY
T4 sequence (P32245 whole entry): as above
T3 sequence (P41968 whole entry): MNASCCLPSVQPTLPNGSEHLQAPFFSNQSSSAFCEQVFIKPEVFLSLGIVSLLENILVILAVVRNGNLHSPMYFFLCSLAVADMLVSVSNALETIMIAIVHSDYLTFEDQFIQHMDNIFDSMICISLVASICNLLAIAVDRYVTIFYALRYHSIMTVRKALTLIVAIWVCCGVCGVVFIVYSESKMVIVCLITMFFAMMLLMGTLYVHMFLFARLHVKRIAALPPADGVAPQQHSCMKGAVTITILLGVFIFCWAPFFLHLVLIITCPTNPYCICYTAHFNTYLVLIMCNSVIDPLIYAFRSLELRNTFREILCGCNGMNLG
T1 sequence (Q01726 whole entry): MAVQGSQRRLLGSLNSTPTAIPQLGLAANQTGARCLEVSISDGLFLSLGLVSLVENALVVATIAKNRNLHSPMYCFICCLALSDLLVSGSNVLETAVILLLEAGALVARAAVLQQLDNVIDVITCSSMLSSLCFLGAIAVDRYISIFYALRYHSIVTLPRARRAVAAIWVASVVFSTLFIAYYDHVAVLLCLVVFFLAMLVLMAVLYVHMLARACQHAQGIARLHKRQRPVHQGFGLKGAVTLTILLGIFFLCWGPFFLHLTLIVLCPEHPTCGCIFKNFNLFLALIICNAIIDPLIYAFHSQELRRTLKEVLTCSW
Sequence of human MC3R (human, UniProt P41968 1-323) (P41968 whole entry): as the sequence (P41968 whole entry) above

Molecule | MC4R selectivity vs MC1R (human MC1R) | Emax (human MC4R) | Emax (human MC3R [1]) | MC4R selectivity vs MC3R (human MC3R [1]) | EC50 (human MC4R) | EC50 (human MC3R [1]) | also measured
CC1(C)NC(=O)CSC[C@@H](C(N)=O)NC(=O)[C@H](Cc2c[nH]c3ccccc23)NC(=O)[C@H](CCCNC(=N)N)NC(=O)[C@@H](Cc2ccccc2)NC(=O)[C@H](Cc2c[nH]cn2)NC1=O [CTX-1647, Thioether-cyclo(Aib-His-D-Phe-Arg-Trp-Cys)] | 3.66 | 109% | 102% | 30 |  |  | 
CC(=O)N[C@@H](CCCNC(=N)N)C(=O)N[C@H]1CSSC[C@@H](C(N)=O)NC(=O)[C@@H](Cc2ccccc2)NC(=O)[C@H](CCCNC(=N)N)NC(=O)[C@@H](Cc2ccccc2)NC(=O)[C@H](CCCNC(=N)N)NC(=O)[C@@H](C)NC1=O [CTX-1257, Arg-cyclo(Cys-D-Ala-Arg-D-Phe-Arg-D-Phe-Cys)] (Ac-RC[dA]R[dF]R[dF]C-NH2; disulfide 2-8 (inferred)) | 0.02 |  |  | 0.06 | 692 nM |  | MC4R cAMP % max activation (human MC4R): (94%); MC3R cAMP % max activation (human MC3R [1]): (88%)
C[C@H]1NC(=O)CSC[C@@H](C(N)=O)NC(=O)[C@H](Cc2ccccc2)NC(=O)[C@H](CCCNC(=N)N)NC(=O)[C@@H](Cc2ccccc2)NC(=O)[C@H](CCCNC(N)=O)NC1=O [CTX-1658, Thioether-cyclo(D-Ala-Cit-D-Phe-Arg-Phe-Cys)] ({CH2CO}-[dA][Cit][dF]RFC-NH2; thioether N-6) | Not active |  |  | Not active | > 10000 nM | > 10000 nM | 
CC(=O)N[C@H]1CSSC[C@@H](C(N)=O)NC(=O)[C@H](Cc2ccccc2)NC(=O)[C@H](CCCNC(=N)N)NC(=O)[C@@H](Cc2ccccc2)NC(=O)[C@H](CCCNC(N)=O)NC(=O)CNC1=O [CTX-1639, cyclo(Cys-Gly-Cit-D-Phe-Arg-Phe-Cys)] (Ac-CG[Cit][dF]RFC-NH2; disulfide 1-7 (inferred)) | 8.32 | 88% | 44% | 2.82 |  |  | 
CCCC[C@H](NC(=O)[C@H](CCCNC(=N)N)NC(C)=O)C(=O)N[C@H]1CSSC[C@@H](C(N)=O)NC(=O)[C@H](Cc2c[nH]c3ccccc23)NC(=O)[C@H](CCCNC(=N)N)NC(=O)[C@@H](Cc2cccc3ccccc23)NC(=O)[C@H](CCCNC(=N)N)NC1=O [CTX-1611, Arg-Nle-cyclo(Cys-Arg-D-Nal(1′)-Arg-Trp-Cys)] (Ac-R[Nle]CR[d1Nal]RWC-NH2; disulfide 3-8 (inferred)) | 0.25 | 67% | 58% | 6.61 | 1.6 nM | 11 nM | 
CC(=O)N[C@H]1CSSC[C@@H](C(N)=O)NC(=O)[C@H](Cc2c[nH]c3ccccc23)NC(=O)[C@H](CCCNC(=N)N)NC(=O)[C@@H](Cc2ccccc2)NC(=O)[C@H](CCCNC(N)=O)NC(=O)C(C)(C)NC1=O [CTX-1633, cyclo(Cys-Aib-Cit-D-Phe-Arg-Trp-Cys)] (Ac-C[Aib][Cit][dF]RWC-NH2; disulfide 1-7 (inferred)) | 942 | 110% | 45% | 104 |  |  | 
CC(=O)N[C@@H](CCCNC(=N)N)C(=O)N[C@H]1CSSC[C@@H](C(N)=O)NC(=O)[C@@H](Cc2c[nH]c3ccccc23)NC(=O)[C@H](CCCNC(N)=O)NC(=O)[C@@H](Cc2ccccc2)NC(=O)[C@H](CCCNC(=N)N)NC(=O)[C@@H](C)NC1=O [CTX-1281, Arg-cyclo(Cys-D-Ala-Arg-D-Phe-Cit-D-Trp-Cys)] (Ac-RC[dA]R[dF][Cit][dW]C-NH2; disulfide 2-8 (inferred)) | 0.44 | 92% | 44% | 0.29 |  | 28 nM | 
CCCC[C@H](NC(=O)[C@H](CCCNC(=N)N)NC(C)=O)C(=O)N[C@H]1CSSC[C@@H](C(N)=O)NC(=O)[C@H](Cc2c[nH]c3ccccc23)NC(=O)[C@H](CCCNC(=N)N)NC(=O)[C@@H](Cc2ccccc2)NC(=O)[C@H](Cc2cccnc2)NC1=O [CTX-1620, Arg-Nle-cyclo(Cys-Pal(3′)-D-Phe-Arg-Trp-Cys)] (Ac-R[Nle]C[3Pal][dF]RWC-NH2; disulfide 3-8 (inferred)) | 47 | 91% | 39% | 12 |  |  | 
CCCC[C@H](NC(=O)[C@H](CCCNC(=N)N)NC(C)=O)C(=O)N[C@H]1CSSC[C@@H](C(N)=O)NC(=O)[C@H](Cc2ccccc2)NC(=O)[C@H](CCCNC(=N)N)NC(=O)[C@@H](Cc2ccccc2)NC(=O)[C@H](CCCNC(=N)N)NC1=O [CTX-1622, Arg-Nle-cyclo(Cys-Arg-D-Phe-Arg-Phe-Cys)] (Ac-R[Nle]CR[dF]RFC-NH2; disulfide 3-8 (inferred)) | 0.39 | 101% | 100% | 0.32 |  | 13 nM | 
CC(=O)N[C@@H](CCCNC(=N)N)C(=O)N[C@H]1CSSC[C@@H](C(N)=O)NC(=O)[C@H](Cc2ccccc2)NC(=O)[C@H](CCCNC(=N)N)NC(=O)[C@@H](Cc2ccccc2)NC(=O)[C@H](Cc2ccncc2)NC(=O)C(C)(C)NC1=O [CTX-1606, Arg-cyclo(Cys-Aib-Pal(4′)-D-Phe-Arg-Phe-Cys)] (Ac-RC[Aib][4Pal][dF]RFC-NH2; disulfide 2-8 (inferred)) | 2.99 | 92% | 7.69% | 0.62 |  |  | 
CC(=O)N[C@@H](CCCNC(=N)N)C(=O)N[C@H]1CSSC[C@@H](C(N)=O)NC(=O)[C@@H](Cc2ccccc2)NC(=O)[C@H](CCCNC(=N)N)NC(=O)[C@@H](Cc2ccccc2)NC(=O)[C@H](CCCNC(=N)N)NC(=O)[C@@H](C)NC1=O [CTX-1265, Arg-cyclo(Cys-D-Ala-Arg-D-Phe-Arg-D-Phe-Cys)] (Ac-RC[dA]R[dF]R[dF]C-NH2; disulfide 2-8 (inferred)) | 0.02 |  |  | 0.04 |  |  | MC4R cAMP % max activation (human MC4R): (71%); MC3R cAMP % max activation (human MC3R [1]): (60%)
C[C@H]1NC(=O)CSC[C@@H](C(N)=O)NC(=O)[C@H](Cc2c[nH]c3ccccc23)N(C)C(=O)[C@H](CCCNC(=N)N)NC(=O)[C@@H](Cc2ccccc2)NC(=O)[C@H](Cc2c[nH]cn2)N(C)C1=O [CTX-1203, Thioether-cyclo(D-Ala-Nme-His-D-Phe-Arg-Nme-Trp-Cys)] ({CH2CO}-[dA][NMeH][dF]R[NMeW]C-NH2; thioether N-6) | 2.32 | 109% | 107% | 161 | 16 nM |  | 
Ac-RC[dA]R[dPhe(4-Br)]RWC-NH2 (disulfide 2-8) [CTX-2205] |  |  |  |  |  |  | % max activation (human MC4R receptor [2]): 88%; cAMP EC50 (human MC4R receptor [2]): 8 nM; % max activation (human MC3R [3]): 13%; cAMP EC50 (human MC3R [3]): 18 nM; MC4R selectivity vs MC1R (human MC4R receptor [4]): 0.2; MC4R selectivity vs MC3R (human MC4R receptor [4]): 2.12

From patent US20240391954A1, “MC4R AGONIST PEPTIDES” (The Regents of the University of Michigan, priority 2021, published 2024)
